The test system of one test is COX2. In words: Western blot of COX2 in microglia enriched cultures. The test is classed as cell-based, rat. The following applies: femto-molar DM, 30 min pretreatment, LPS. On the procedure:
Western blots were used to analyze possible effects of DM on iNOS and COX2 production in rat microglia enriched cultures. The cultures were prepared and treated with vehicle, OM DM, 10^−14DM, LPS alone, and LPS with different concentrations of DM. The production of iNOS (inducible nitric oxide synthenase) and COX2 (cycloxyase 2) in the culture extracts were detected by Western Blot assay. Data in FIG. 9B represent the mean±S.E.
On the technique in general: A western blot detects proteins with antibodies after separation by electrophoresis.

Another test deals with iROS. The test is described as follows: iROS production in neuron-glia cultures of PHOX+/+ and PHOX−/− mice. The test is classed as cell-based, mouse. The conditions noted are these: DM 10^−14 M. On the procedure: The neuron-glia cultures were treated with vehicle, LPS 10 ng/ml alone, and DM (10^−14 M) 30 min pretreatment followed by LPS treatment as in Example 1. Neurotoxicity was assessed by DA uptake as described in Example 1. TNFα production was measured by ELISA and iROS was determined by DCFDA as in Example 5. Results are expressed as a percentage of the control culture in FIG. 7A, pg/ml in FIG. 7B, and difference from control in FIG. 7C, respectively, and are the mean±S.E.M. of five individual experiments with triplicates in each experiment. *, P<0.05 compared with LPS culture.

The test system of a further test is primary rat microglia. In words: Microglia number (CyQUANT) in microglia-enriched cultures. The test is classed as cell-based. On the procedure: Primary rat microglia-enriched cultures were used to determine if VPA treatment affected the total number of microglia. Microglia cell number was determined as follows. Primary microglia-enriched cultures were prepared from the whole brains of 1-day-old rats as described previously. After one day in vitro were treated with the indicated concentrations of VPA (0.05, 0.1, 0.2, 0.4, 0.6, 0.8, 1.0, or 1.2 mM) for 48 h, or with 0.6 mM VPA for different times (6, 12, 24 or 48 h). […] The total number of microglia was counted by using the CyQUANT cell proliferation assay kit (Molecular Probes, Inc.).

`COc1ccc2c(c1)[C@@]13CCCC[C@H]1[C@@H](C2)N(C)CC3` [DM, d-3-methoxy-N-methylmorphinan]: the “protein content of COX2” value in the test with COX2 was “failing to affect the protein content”. The “LPS-induced iROS production” value in the test with iROS (PHOX+/+ mice) was “significantly inhibited iROS production”; in the test on iROS (PHOX−/− mice) it was “failed to show any effect”.

Regarding `CCCC(CCC)C(=O)O` [VPA, Valproic acid], in the test on primary rat microglia (VPA 0.2 mM to 1.2 mM, 48 h), the “number of microglia, concentration dependence” value was “robust decrease in microglia number”. Moreover, the “number of microglia, time course” value with primary rat microglia (VPA 0.6 mM, 6-48 h, significant effect at 24 h and 48 h) was “time-dependently decreased the number of microglia”. In the test on primary rat microglia (VPA 0.8 mM, 48 h), the loss of microglia result was “about 80%”.

Values taken from US8796302B2 (priority 2004, dated 2014).
